A melting point compilation (Tetko et al.; mined from patent text by program, amines drawn as free bases though some values may be those of a salt)

SMILES	melting point
COc1cc2cc(-c3cc(C)c(O)c(C)c3)[nH]c(=O)c2c(OC)c1CN1CCOCC1	158 to 161 °C
CC1CC(O)=NN1c1ccc(Cl)c(Cl)c1 (stereo not given)	208 to 211 °C
Oc1cccc(-n2nnnc2S)c1	176 to 178 °C
COc1ccc(C(O)CCN2CC=C(c3ccc(Cl)cc3)CC2)cc1 (stereo not given)	116 to 118 °C
COC1CC(c2ccc(-c3ccc(C#N)cc3)cc2)C(OC)O1 (stereo not given)	149 to 150 °C
CCOC(=O)C(CCCCCCl)=NO	36 to 38 °C
COc1ccc(C2CCCCC2)cc1-c1csc(NC(=O)N2CCN(C[C@@H]3CCCN(CCC(=O)O)C3)CC2)n1	144 °C
CC1OCC(=O)N(C(=O)O)C1c1ccc(F)c(F)c1 (single isomer, unassigned; (+))	191 to 194 °C
COc1ccc(C2CNC(=O)O2)cc1OC (stereo not given)	114 to 117 °C
COc1ccc2c(c1)SCCC2=O	49 to 51 °C
O=C1NCN(c2ccccc2)C12CCN(C1CCC(c3ccc(F)cc3)(c3ccc(F)cc3)CC1)CC2	249 to 253 °C
O=C(NCC1CCCCCC1)c1cc(-c2ccc(Cl)c(C(=O)O)n2)ccc1Cl	189 to 190 °C
Cc1nc2c(s1)CCCC2=O	86 to 87 °C
COc1ccc(C=C(C)c2cc(OC)sc2C)cc1	112 to 113 °C
O=C1CCC(c2ccccc2)(c2ccccc2)C2CN(C(Cc3ccccc3)=NCCCc3ccccc3)CC12 (stereo not given)	144 °C
O=C(NCC1(c2ccccc2)CCCCC1)Nc1ccc(F)cc1F	163 to 165 °C
CC(C)(C)[C@@H]1OC(=O)[C@@H]2[C@H]1C2(C)C	113 °C
CN(C)C(=O)c1ccc(NC=O)cc1S(N)(=O)=O	192 to 193 °C
O=C(O)CNC(=O)C(NC(=O)c1ccccc1)SC(=O)c1ccccc1 (stereo not given)	162 to 164 °C
CNc1cc(Cl)cc(C)n1	69 to 70 °C
CC(=O)NC1CSc2ccccc2NC1=O (stereo not given)	283 to 286 °C
O=C(CCC1OC=CO1)c1ccc2c(c1)OCO2	94 to 96 °C
c1ccc(P(Cc2ccccc2-c2ccccc2CP(c2ccccc2)c2ccccc2)c2ccccc2)cc1	84 to 87 °C
COc1cc2c(cc1OC)CCN(CCCN(C)C1CCc3cc(OC)c(OC)cc3C1)C=C2 (stereo not given)	115 to 116 °C
C=CCC(C(=O)O)(c1ccccc1)c1ccccc1	134 to 137 °C
CC(C)=CC(n1cncn1)C(C)(O)C(C)(C)C (stereo not given)	115 to 116 °C

SMILES	melting point
CCONC(=O)COc1cccc2c1c(C(=O)C(N)=O)c(CC)n2Cc1ccccc1	176 to 178 °C
COC(=O)c1ccc(S(C)(=O)=O)c(C=NO)c1C	123 to 129 °C
Cc1c(Cl)cccc1S(=O)O	112 °C
COC(=O)C(=O)c1nsc(NC(=O)Oc2ccccc2)n1	74 to 79 °C
C#Cc1cc2c(cc1Cl)C=C(C(=O)O)C(C(F)(F)F)O2 (stereo not given)	> 300 °C
Cc1ccn(NS(=O)n2ccnc2)c(=N)c1 (stereo not given)	176 to 177 °C
CC(C)(C)c1ccc(C(NC(=O)c2c(F)cccc2Cl)N2CCOCC2)cc1 (stereo not given)	180 to 181 °C
O=C(NC=CC1CC2C=CC1C2)n1cc(F)c(=O)[nH]c1=O (stereo not given)	130 to 132 °C
O=C(OC1C2OCC(O2)C(OCc2ccccc2)C1OCc1ccccc1)c1ccccc1 (stereo not given)	111 to 113 °C
c1ccc(NC[C@@H]2N[C@H]2c2ccccc2)cc1 (relative stereo)	96 to 97 °C
CCCC(=O)c1cnn(C)c1S(=O)(=O)NC(=O)Nc1nc(C)nc(OC)n1	174 to 176 °C
CC(C)(C)NC1=NCCNC(c2ccccc2)=C1	93 to 97 °C
O=C(c1ccc(-c2ccn(C(=O)C3CC3)n2)cc1)N1Cc2cccn2Cc2ccccc21	197 to 199 °C
CN(C)S(=O)(=O)c1ccc2c(c1)S(=O)(=O)NC(C1CCCCC1)N2 (stereo not given)	243 to 245 °C
Nc1ccc(S(=O)(=O)Nc2cccc3c(Cl)c[nH]c23)cc1	174 to 176 °C
O=C(N[C@H](Cc1ccc(C(F)(F)F)cc1)[C@@H](O)c1ccc(F)cc1)C1CCCCC1 (racemic)	203 to 204 °C
ClC(Cl)=Cc1ccc(OCc2ccccc2)cc1	74.5 to 76.5 °C
c1cc2c(cc1N1CCNCC1)OCCO2	138 °C
CCc1nn(C2CCCC2)c2c1CCn1c(-c3cccs3)nnc1-2	126 °C
CCC(=O)Nc1nc2ccc(Cl)cc2nc1N	300 to 302 °C
COC(=O)Nc1cc(F)ccc1C(=O)O	162 °C
Cc1cccc2c1N(CC(=O)c1ccccc1O)C(=O)C(NC(=O)Nc1cccc(-c3nnn[nH]3)c1)N=C2c1ccccc1F (stereo not given)	221 to 225 °C
N#CC(C(=O)C(F)(F)F)c1cccc(Cl)c1Cl (stereo not given)	74 to 75 °C
CC1(C)COc2ccc(C(N)=O)cc21	136 to 138 °C
CC(=O)Nc1c(Cl)c(C(C)(C)C)nn1-c1c(Cl)cc(C(F)(F)F)cc1Cl	211 °C
Oc1c(Br)cc(-c2cccc3sc4c(Br)cccc4c23)cc1Br	118 to 119 °C

Other lines, results leading:

melting point	SMILES
194 °C	Nc1ccc2nc(-c3ccccc3)cc(OCC(=O)N3CCOCC3)c2c1
170 to 172 °C	CCCCN1CN(C2CC(OC(=O)c3ccccc3C)C(COC(=O)c3ccccc3C)O2)C(=O)NC1=O (stereo not given)
185 °C	Cc1cn(C)c2c1N(C(=O)CCN1CCCC1)c1ccccc1NC2=O
298 to 300 °C	O=C1CCC(N2Cc3cc(CNC(=O)Nc4cccc(Oc5ccccn5)c4)ccc3C2=O)C(=O)N1 (stereo not given)
249 to 252 °C	O=C(Nc1nccs1)c1nc(-c2ccc([N+](=O)[O-])cc2)[nH]c1-c1ccc(CO)cc1
40 to 42 °C	CCCCCCCCCCCCCCCCCCOc1cc(OCCCCC(=O)OC)cc(C(=O)OCc2ccccc2)c1
220 to 221 °C	CC(C)(C)C(NC(=O)COc1ccccc1)Nc1c(Nc2cccnc2Cl)c(=O)c1=O (stereo not given)
103 to 105 °C	O=c1cc(NCCN2CCN(c3ccccc3F)CC2)cn[nH]1
136 to 138 °C	Cc1nc(NN)nnc1-c1ccccc1
235 to 236 °C	COCCOc1cc(NS(=O)(=O)c2ccccn2)c2[nH]c(C3=NCC(CN4CCS(=O)CC4)S3)cc2c1 (stereo not given)
270 to 274 °C	CC(=O)Nc1ccc(S(=O)(=O)NC(=N)c2cnccn2)cc1
173 to 174 °C	O=C(O)/C=C/c1c(C2CC2)nc2ccccc2c1-c1ccc(F)cc1
275 °C	O=C(c1cccnc1)c1ccc2c(c1)CN1C=CNC1=N2
119 to 121 °C	CC(C)(C)OC(=O)N1CCC(O)(Cc2ccc3ccccc3n2)CC1
201 to 202 °C	COc1cc(Nc2ncc3c(n2)-c2ccccc2CCC3)cc(OC)c1OC
182 to 183 °C	CCCCc1cn(CCC2CC2)c(=O)n1Cc1ccc(-c2ccccc2-c2nnn[nH]2)nc1
176 to 178 °C	O=c1c(Br)c(OCc2ccc(F)c(F)c2F)ccn1Cc1cccc(F)c1
221 to 225 °C	Fc1cccc(CC2(Cc3cccc(F)n3)c3cccnc3-c3ncccc32)n1
136 to 138 °C	O=C(O)C(CC1CCCC1)c1ccc(-c2cccnc2)cc1 (stereo not given)
84 °C	O=[N+]([O-])c1cccnc1Sc1nc(Cl)no1
195 to 200 °C	O=C1COc2ccc(C3=Nc4ccccc4SC3c3ccccc3Cl)cc2N1 (stereo not given)
178 °C	CCn1nc(-c2ccc(OC)c(F)c2)c(-c2ccc(OC)c(F)c2)cc1=O
130 to 132 °C	CCCCCS(=O)(=O)NC(=O)OCc1ccc(OCCOC)cc1Oc1ncc(C(F)(F)F)cc1Cl
82 to 85 °C	Cc1ccc(NC(=O)C(CC2CCCC2)c2ccc(S(C)(=O)=O)cc2)nc1 (stereo not given)

melting point	SMILES
47 to 50 °C	CC(C)(C)c1ccc(Oc2nc(Nc3cccc(CO)c3)nc(Oc3ccccc3)n2)cc1
110 to 113 °C	COc1ccc(N2CCN(c3c(C)c(C)c4c(c3C)C(c3ccoc3)C(C)(C)O4)CC2)cc1 (stereo not given)
227 to 230 °C	Cc1cccc2cc3c(=O)n(CC(F)(F)F)cc(C(=O)NCCN(C)C)c3nc12
120 °C	CCOc1ccc2c(c1)n(C1CCCCC1)c(=O)n2Cc1ccc([N+](=O)[O-])cc1OC
34 °C	Clc1ncc(-c2ccccc2)o1
130 °C	CC(C)(Nc1ccc(Cc2ccccc2)cc1)C(=O)O
202 to 204 °C	CC1C(=O)N(c2ccc(O)cc2)C(=S)N1c1ccc(Oc2ccccc2)cc1 (stereo not given)
190 °C	CCOCCOc1c(C2CCN(CCCCNC(=O)c3ccc(-c4ccc(C(F)(F)F)cc4)cc3)CC2)ccc2c1CCCC2
85 °C	Cc1c(F)cccc1Cc1c(-c2ccccc2)c2ccccn2c1C(=O)N1CCN(C(=O)OC(C)(C)C)[C@@H](CCO)C1
155 to 156 °C	CC1(O)CC(=O)OC(C=Cc2ccc(OCc3ccccc3)cc2)C1 (stereo not given)
103 °C	COC(=O)c1ccc(OC(=O)c2ccccc2)cc1O
125 °C	C=C(C)CCC(=O)C(C(=O)OCC)C1c2ccccc2C(=O)N1c1ccc2ccc(Cl)nc2n1 (stereo not given)
160 to 162 °C	CN(C)CCCn1cc(Br)c2c3c(c(-c4ccccc4Cl)cc21)C(=O)NC3=O
96 to 98 °C	CC(c1ccccc1)c1ccc(N)c([N+](=O)[O-])c1 (stereo not given)
104 to 106 °C	CCCN(CCC)C(=O)Cc1c(-c2ccc(Cl)cc2)nn2cccnc12
160 to 162 °C	Cc1c(SCCCCSCCn2c([N+](=O)[O-])cnc2C)ccnc1CSc1nc2ccccc2[nH]1
170 to 171 °C	Cc1c(NC(=O)CCCC(=O)c2ccc(F)cc2)ccc2cc(CN3CCCC3)cnc12
157 to 158 °C	Cc1nn(-c2cc(O)c(Cl)cc2F)c(C)c1[N+](=O)[O-]
211 to 214 °C	CC(C)Nc1n[nH]c2nc(Oc3ccc(F)cc3F)ncc12
163 to 165 °C	CCOC(=O)C1=C(O)c2ccc3ccccc3c2S(=O)(=O)N1C
109 to 111 °C	Cc1nc(-c2ccc(C#N)cc2)sc1C(=O)N[C@H](C)[C@](O)(Cn1cncn1)c1ccc(F)cc1F
106 °C	Clc1ccc(C(Cn2cncn2)OCc2ccccc2Cl)c(Cl)c1 (stereo not given)
134 to 135 °C	O=C1[C@H]2CCC[C@H]2N(C(=O)CCCCBr)c2ccccc2N1Cc1ccccc1 (relative stereo)
> 300 °C	CNC(=O)Nc1ccc(-c2c[nH]c(=O)cn2)cc1
